Measurements reported in patent US5827837A, “Polyanion anti-inflammatory agents” (priority 1996, dated 1998).
“Also recorded” adds a separate entry of the source. Read-outs that look alike come from different tables or passages of the source.

What was measured:
[1] = target: T1, L-selectin-lg fusion protein (Homo sapiens, UniProt P14151); assay: Competition ELISA: binding of L-selectin-Ig to immobilized BSA-sLe^x
T1 construct: Each selectin-lg contains the lectin domain, epidermal growth factor domain, and one (L-selectin-lg), two (P-selectin-lg) or six (E-selectin-lg) complement regulatory repeats; made in house
Source text: Selectin-lg fusion proteins are recombinant chimeric molecules containing extracellular regions of selectins coupled to the hinge, CH2, and CH3 regions of human IgG1 (Aruffo, A., et al., Cell, 67:35, 1991; Walz, G., et al., Science, 250:1132, 1990). Each selectin-lg contains the lectin domain, epidermal growth factor domain, and one (L-selectin-lg), two (P-selectin-lg) or six (E-selectin-lg) complement regulatory repeats of the parent molecules. DNAs encoding selectin-Ig inserted in pCDM7 allowed transient expression of recombinant proteins in COS cells as previously described (Seed, B., et al., Proc. Natl. Acad. Sci., U.S.A., 84:3365, 1987; Aruffo, A., Current Protocols In Molecular Biology, eds. Ausubel, F. M., et al, 16:13.1, Greene Publishing Associates and Wiley-lnterscience, New York, N.Y., 1992). These DNAs were also ligated into pNUT (Palmiter, R. D., et al, Cell, 50:435, 1987) for amplification and stable expression in BHK cells. The fusion proteins were affinity purified from culture media using protein A (Pierce Chemical Company, Rockford, Ill.) or protein G (Pharmacia, Piscataway, N.J.) Sepharose, as previously described (Aruffo, A., et al., Cell, 67:35, 1991; Aruffo, A., Current Protocols In Molecular Biology, eds. Ausubel, F. M., et al, supra, 1992). Competition binding ELISAs using P- and E-selectin-lg were performed essentially as described (Nelson, R. M., et al., J. Clin. […] Selectin concentrations were from 10 to 30 nM. […] To increase L-selectin binding, an assay similar to that previously described was used (Foxall, C., et al., J. Cell Biol., 117:895, 1992), in which the L-selectin-lg (10-20 nM) was allowed to form aggregates with HRP-conjugated anti-lg antibody for 30 minutes prior to addition of inositols and incubation on the BSA-sLe^x -coated plate. IC50 values were calculated by fitting binding data to the equation: fraction of maximal binding=IC50 […] using nonlinear least squares analysis software (Origin, Microcal Inc, Northampton, Mass.). InsP6 (dodecasodium salt), InsS6 (hexapotassium salt), myo-inositol 1 monophosphate (cyclohexylammonium salt), and myo-inositol were from Sigma Chemical Company (St. Louis, Mo.). Stock solutions were prepared daily in 0.9% NaCl and sterilized by 0.22 μm filtration. InsP6 solutions were adjusted at pH 7.4 with HCl.
(§1) L-, P-, or E-selectin-lg fusion proteins were incubated for 2-3 hours on microtiter plates coated with the neoglycoprotein BSA-sLe^x, the plates washed, and bound selectin-lg was detected using a peroxidase-conjugated antibody directed against the lg portion and a chromogenic substrate. To determine blocking activity, solution-phase lnsP6 (.circle-solid.), InsS6 (.largecircle.), or inositol (.box-solid.) at the indicated concentrations were added to the solutions containing selectin-Ig fusion proteins prior to transfer to microtiter plates (competition ELISA).

[2] = target: T2, E-selectin-lg fusion protein (Homo sapiens, UniProt P16581); assay: Competition ELISA: binding of E-selectin-Ig to immobilized BSA-sLe^x
T2 construct: Each selectin-lg contains the lectin domain, epidermal growth factor domain, and one (L-selectin-lg), two (P-selectin-lg) or six (E-selectin-lg) complement regulatory repeats; made in house
Source text: (§2) Selectin-lg fusion proteins are recombinant chimeric molecules containing extracellular regions of selectins coupled to the hinge, CH2, and CH3 regions of human IgG1 (Aruffo, A., et al., Cell, 67:35, 1991; Walz, G., et al., Science, 250:1132, 1990). Each selectin-lg contains the lectin domain, epidermal growth factor domain, and one (L-selectin-lg), two (P-selectin-lg) or six (E-selectin-lg) complement regulatory repeats of the parent molecules. DNAs encoding selectin-Ig inserted in pCDM7 allowed transient expression of recombinant proteins in COS cells as previously described (Seed, B., et al., Proc. Natl. Acad. Sci., U.S.A., 84:3365, 1987; Aruffo, A., Current Protocols In Molecular Biology, eds. Ausubel, F. M., et al, 16:13.1, Greene Publishing Associates and Wiley-lnterscience, New York, N.Y., 1992). These DNAs were also ligated into pNUT (Palmiter, R. D., et al, Cell, 50:435, 1987) for amplification and stable expression in BHK cells. The fusion proteins were affinity purified from culture media using protein A (Pierce Chemical Company, Rockford, Ill.) or protein G (Pharmacia, Piscataway, N.J.) Sepharose, as previously described (Aruffo, A., et al., Cell, 67:35, 1991; Aruffo, A., Current Protocols In Molecular Biology, eds. Ausubel, F. M., et al, supra, 1992). Competition binding ELISAs using P- and E-selectin-lg were performed essentially as described (Nelson, R. M., et al., J. Clin. Invest., 91:1157, 1993), except that the assay buffer was 20 mM HEPES pH 7.4, 150 mM NaCl, 2 mM CaCl2, and 0.25 mM thimerosal, containing 10 mg/ml BSA, protease-free, (Miles Inc., Kankakee, Ill.). Selectin concentrations were from 10 to 30 nM. […] To increase L-selectin binding, an assay similar to that previously described was used (Foxall, C., et al., J. Cell Biol., 117:895, 1992), in which the L-selectin-lg (10-20 nM) was allowed to form aggregates with HRP-conjugated anti-lg antibody for 30 minutes prior to addition of inositols and incubation on the BSA-sLe^x -coated plate. IC50 values were calculated by fitting binding data to the equation: fraction of maximal binding=IC50 […] using nonlinear least squares analysis software (Origin, Microcal Inc, Northampton, Mass.). InsP6 (dodecasodium salt), InsS6 (hexapotassium salt), myo-inositol 1 monophosphate (cyclohexylammonium salt), and myo-inositol were from Sigma Chemical Company (St. Louis, Mo.). Stock solutions were prepared daily in 0.9% NaCl and sterilized by 0.22 μm filtration. InsP6 solutions were adjusted at pH 7.4 with HCl.
as §1

[3] = system: L-selectin; conditions: cited from earlier work
[4] = system: P-selectin; conditions: cited from earlier work
[5] = system: inflammation; conditions: rodent model; cited from earlier work
[6] = target: T3, P-selectin-lg fusion protein (Homo sapiens, UniProt P16109); assay: Competition ELISA: binding of P-selectin-Ig to immobilized BSA-sLe^x
T3 construct: Each selectin-lg contains the lectin domain, epidermal growth factor domain, and one (L-selectin-lg), two (P-selectin-lg) or six (E-selectin-lg) complement regulatory repeats; made in house
Source text: as §2, §1

[7] = system: L-selectin; conditions: cited from earlier work; remark: listed apart in the source
[8] = system: P-selectin; conditions: cited from earlier work; remark: listed apart in the source
[9] = system: PMN within the peritoneal cavity; assay: Thioglycollate-induced peritoneal inflammation, PMN accumulation; type: in vivo, mice (Balb/c); conditions: mice, 80 μmol/kg in two i.v. injections, 2 experiments
[10] = system: hemoglobin; conditions: avian erythrocytes; cited from earlier work
[11] = chelator concentration above 1 mM
[12] = up to a concentration of 1 mM in assay buffer

CC(=O)N[C@H]1[C@H]([C@H](O)[C@H](O)CO)O[C@@](O[C@H]2[C@@H](O)[C@@H](CO)O[C@@H](O[C@H]3[C@H](O[C@@H]4O[C@@H](C)[C@@H](O)[C@@H](O)[C@@H]4O)[C@@H](NC(C)=O)C(O)O[C@@H]3CO)[C@@H]2O)(C(=O)O)C[C@@H]1O (some centres unmarked) [sLe^x, Neu5Acα2-3Galβ1-4(Fucα1-3)GIcNAc, reference compound]
blocking of L-selectin-Ig binding ([1]; BSA-sLe^x competition ELISA): failed to block L-selectin binding at concentrations up to 1 mM | IC50 ([2]; BSA-sLe^x competition ELISA, solution-phase sLe^x): 510 ± 60 µM

O=P(O)(O)O[C@@H]1[C@@H](O)[C@@H](O)[C@@H](OP(=O)(O)O)[C@H](OP(=O)(O)O)[C@H]1O (relative stereo) [D, L-isomer mixture of Ins1,4,6 P3]
IC50 ([1]; preliminary competition ELISA, single experiment, read-out: IC50, L-selectin-Ig): 230 ± 90 µM

heparin
L-selectin interaction / dependent adhesion [3]: interact with both P- and L-selectin | P-selectin interaction / dependent adhesion [4]: interact with both P- and L-selectin

O=P(O)(O)O[C@@H]1[C@H](OP(=O)(O)O)[C@H](O)[C@@H](O)[C@H](O)[C@H]1OP(=O)(O)O [1,2,6-triphosphate (IP3), 1,2,6-triphosphate]
inhibition of inflammation [5]: modestly inhibit inflammation

fucoidan
L-selectin interaction / dependent adhesion [3]: L-selectin adhesion can be blocked; also recorded: interact with both P- and L-selectin | P-selectin interaction / dependent adhesion [4]: interact with both P- and L-selectin

O=P(O)(O)O[C@@H]1[C@@H](O)[C@H](OP(=O)(O)O)[C@@H](OP(=O)(O)O)[C@H](O)[C@@H]1O [L-isomer of Ins1,4,5 P3]
inhibition of L-selectin-Ig binding ([1]; preliminary competition ELISA, up to 700 μM): no inhibition at concentrations up to 700 μM

O=P(O)(O)OC1[C@H](O)[C@H](O)C(O)[C@H](O)[C@H]1O (some centres unmarked) [InsP1, myo-inositol 1 monophosphate, reference compound]
activity against L-selectin ([1]; selected assays, in vitro): no activity | activity against P-selectin ([6]; selected assays, in vitro): no activity

O=C(O)CN(CCN(CC(=O)O)CC(=O)O)CC(=O)O [EDTA, reference compound]
inhibition profile, L-selectin [1, 11]: same inhibition profile on all three selectins | blocking of L-selectin with chelator [1, 12]: no blocking of any selectin up to a concentration of 1 mM | inhibition profile, P-selectin [6, 11]: same inhibition profile on all three selectins | blocking of P-selectin with chelator [6, 12]: no blocking of any selectin up to a concentration of 1 mM | inhibition profile, E-selectin [2, 11]: same inhibition profile on all three selectins | blocking of E-selectin with chelator [2, 12]: no blocking of any selectin up to a concentration of 1 mM | effect of calcium chelator on L-selectin interaction with sulfatides [7]: largely unaffected | effect of calcium chelator on P-selectin interaction with sulfatides [8]: largely unaffected

O=P(O)(O)O[C@@H]1[C@@H](OP(=O)(O)O)[C@H](OP(=O)(O)O)[C@H](O)[C@H](OP(=O)(O)O)[C@H]1OP(=O)(O)O [InsP5, inositol pentakisphosphate]
IC50 ([1]; selected assays, in vitro, read-out: IC50, blocking activity against L-selectin): 38 ± 17 µM | IC50 ([6]; selected assays, in vitro, read-out: IC50, blocking activity against P-selectin): 940 ± 130 µM | reduced peritoneal influx of PMN (inhibition) [9]: 48±6% | effect on hemoglobin affinity for oxygen [10]: increasing its affinity for oxygen
